Assay results as given in article PMC11623267, “Inhibitors of malaria parasite cyclic nucleotide phosphodiesterases block asexual blood-stage development and mosquito transmission” (Science Advances, 2024).
Read-outs that look alike come from different tables or passages of the source.

Legend:
HepG2 cells = assay: HepG2 cytotoxicity; format: cell-based
Text: Table 1. Key activity data for the three main chemical subseries against ABS parasites, parasite fractions, and HepG2 cells. ND, not determined; ×/÷ is the geometric mean with geometric SD. | column: HepG2 EC50 (nM) (selectivity index)

[1] = tested on: P. falciparum clinical isolates from Tororo and Busia Districts of Uganda; assay: Ex vivo 72-hour SYBR Green assay, Ugandan clinical isolates; format: cell-based, Plasmodium falciparum; settings: 47 Ugandan isolates
Text: Clinical isolates were from the Tororo District of Uganda, located in the central-eastern part of the county near the Kenya border. Tororo and surrounding areas have high-intensity, year-round malaria transmission. […] Patients reporting use of antimalarial treatment within the previous 30 days or with evidence of an infection with other Plasmodium species were excluded. Informed consent was obtained from patients and/or primary care givers (depending on age); children aged 8 to 17 years provided assent. Two to 5 ml of blood was collected by venipuncture in a heparin tube. Samples were delivered to the adjacent IDRC laboratory at Tororo District Hospital or transported by car from Masafu Hospital on the day of collections for storage of blood spots on filter paper (for isolation of nucleic acids) and initiation of ex vivo culture of malaria parasites. Treatment involved a standard therapeutic regimen for uncomplicated falciparum malaria, which was a 3-day course of the artemisinin-based combination therapy (ACT), artemether-lumefantrine. In Uganda, at the time of sampling, there was widespread resistance to the antifolate drugs due to mutant pfdhfr/pfdhps alleles. […] Chloroquine was prepared at 10 mM in water. Stock solutions were stored at −20°C. Working solutions were freshly prepared from a single aliquot within 4 hours of the susceptibility test and stored at 4°C.
Samples were delivered to the adjacent IDRC laboratory at Tororo District Hospital or transported by car from Masafu Hospital on the day of collection for storage of blood spots on filter paper (for isolation of nucleic acids) and initiation of ex vivo culture of malaria parasites. […] Before assay, 10 mM antimalarial stock compounds were diluted as necessary in DMSO and stored at −20°C. […] Compounds were serially diluted threefold in a 96-well assay plate in complete medium to a final volume of 50 μl, in columns 1 to 10, with concentrations optimized to capture full dose-response curves. Column 11 contained compound-free controls, while column 12 contained uninfected human RBC controls. Parasite culture (150 μl) was added to columns 1 to 11 of the assay plate with a final volume of 200 μl per well, 0.2% parasitemia, and 2% hematocrit. […] Thawed plates were incubated with SYBR Green lysis buffer for 1 hour in the dark as previously reported ([62]). Fluorescence was quantified using a BMG Fluostar Optima plate reader at an excitation of 485 nm and an emission of 530 nm, and data were plotted using GraphPad Prism 7. The data were curve fit with a variable slope function to estimate IC50 values. For each isolate, a Z′ factor to assess assay quality was calculated from positive controls (eight drug-free wells) and negative controls (eight parasite-free, red cell control wells). Z′ values over 0.5 were considered good assays, but each curve was also examined by eye for suitability. Some assays with Z′ below 0.5 may be considered valid depending on factors such as the SE of the curve-fit IC50.

Structure (SMILES)	EC50 (HepG2 cells; Homo sapiens, HepG2) [nM]	HepG2 selectivity index (HepG2 cells; value in brackets after HepG2 EC50)	EC50 ([1]; read-out: EC50 clinical isolates, Gmean (geometric mean)) [nM]	EC50 ([1]; read-out: EC50 clinical isolates, Median) [nM]
CC(C)c1n[nH]c2c(=O)[nH]c(Cc3ccc(F)cc3F)nc12 [SAL-0010003]	> 25000	> 77	–	–
CC(C)c1[nH]nc2c(=O)[nH]c(Cc3ccccc3F)nc12 [SAL-0010042]	–	–	204	197
